In US20050096254A1, “Peptide deformylase activated prodrugs” (priority 2002, published 2005):
In brackets after ≈: the same amount, converted by molar mass. Read-outs that look alike come from different tables or passages of the source.

Columns and labels:
Stability in PBS, pH 7.4 = assay type: physicochemical; settings: for half-life: pH 7.4, read-out: Stability PBS, pH 7.4 t1/2 (converted); for Stability PBS, pH 7.4 % left after 6 hrs: pH 7.4, after 6 hrs
[1] = Stability in Mueller Hinton Broth; assay type: physicochemical; settings: for half-life: read-out: Stability Mueller Hinton Broth t1/2 (converted)
[2] = Stability in Mouse Plasma; assay type: in vitro ADME; settings: for half-life: read-out: Stability Mouse Plasma t1/2
[3] = Stability in Human Plasma; assay type: in vitro ADME; settings: for half-life: read-out: Stability Human Plasma t1/2
E. coli = experiment: MIC susceptibility testing (modified NCCLS); assay type: cell-based; settings: Escherichia coli, ATCC25922; Table 6, E. coli ATCC 25922; read-out: MIC
Method: (§1) The NCCLS (National Committee for Clinical Laboratory Standards), method to determine MIC's of antimicrobial compounds is modified for high-throughput screening. All stocks of tested compounds are prepared in either water or in DMSO depending on solubility. At the highest concentration, DMSO content should not exceed 0.5%. Briefly, twenty 2-fold serial dilutions of test compounds from the highest concentration is made in a 384-well microtiter plate. Each well is inoculated with testing bacteria in broth to a final concentration of approximately 1-1.5×10^6 cells/ml. Bacterial growth is determined by the increase of optical density at 600 nm using a microplate reader (Tecan SpectraFluor Plus).

E. faecalis = experiment: MIC susceptibility testing (modified NCCLS); assay type: cell-based; settings: Enterococcus faecalis, ATCC29212; Table 6, E. faecalis ATCC 29212; read-out: MIC
Method: as §1

S. aureus = experiment: MIC susceptibility testing (modified NCCLS); assay type: cell-based; settings: Staphylococcus aureus
Method: as §1

P. aeruginosa = experiment: MIC susceptibility testing (modified NCCLS); assay type: cell-based; settings: Pseudomonas aeruginosa, ATCC27853; Table 6, P. aeruginosa ATCC 27853; read-out: MIC
Method: as §1, with “Each well is inoculated with testing bacteria in broth to a final concentration of approximately 1-1.5×10^6 cells/ml.” left out

PDF = PDF (Escherichia coli, UniProt P0A6K3); settings: Wei et al. (2000); read-out: Ki (competitive PDF inhibitor); cited from earlier work
Sequence of PDF (P0A6K3 whole entry): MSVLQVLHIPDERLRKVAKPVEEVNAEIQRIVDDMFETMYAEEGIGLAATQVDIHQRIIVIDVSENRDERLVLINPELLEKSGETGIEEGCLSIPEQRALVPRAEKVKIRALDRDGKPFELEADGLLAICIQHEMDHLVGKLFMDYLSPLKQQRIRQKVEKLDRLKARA

| Structure (SMILES) | half-life (Stability in PBS, pH 7.4) | half-life [1] | Stability PBS, pH 7.4 % left after 6 hrs (Stability in PBS, pH 7.4) | Stability Mueller Hinton Broth % left after 6 hrs [1] | Stability Mouse Plasma % left after 10 min [2] | half-life [2] | half-life [3] | other results |
| --- | --- | --- | --- | --- | --- | --- | --- | --- |
| CCn1cc(C(=O)O)c(=O)c2cc(F)c(N3CCNCC3)cc21 [Norfloxacin, norfloxacin, reference compound] |  |  |  |  |  |  |  | MIC (E. coli): 15.6 ng/mL (≈ 0.0489 µM); MIC (E. faecalis): 1000 ng/mL (≈ 3.13 µM); MIC (S. aureus; ATCC29213, Table 6, S. aureus (MS) ATCC 29213, read-out: MIC): 500 ng/mL (≈ 1.57 µM); MIC (S. aureus; ATCC33591, Table 6, S. aureus (MR) ATCC 33591, read-out: MIC): 1000 ng/mL (≈ 3.13 µM); MIC (P. aeruginosa): 500 ng/mL (≈ 1.57 µM) |
| Oc1cc(Cl)ccc1Oc1ccc(Cl)cc1Cl [Triclosan, triclosan, reference compound] |  |  |  |  |  |  |  | MIC (S. aureus; ATCC 11632 / MSSA): 1.95 ng/mL (≈ 0.00675 µM); MIC (S. aureus; ATCC 13301 / MSSA): 0.488 ng/mL (≈ 0.00169 µM); MIC (S. aureus; ATCC 14154 / MSSA): 1.95 ng/mL (≈ 0.00675 µM); MIC (S. aureus; ATCC 33591 / MSSA): 7.81 ng/mL (≈ 0.027 µM); MIC (S. aureus; ATCC 33592 / MSSA): 3.91 ng/mL (≈ 0.0135 µM); MIC (S. aureus; ATCC 33593 / MSSA): 0.977 ng/mL (≈ 0.00337 µM); MIC (S. aureus; ATCC 43300 / MSSA): 1.95 ng/mL (≈ 0.00675 µM); MIC (S. aureus; ATCC 700260 / MSSA): 0.244 ng/mL (≈ 0.000843 µM); MIC (S. aureus; ATCC 700698 / MSSA): 3.91 ng/mL (≈ 0.0135 µM); MIC (S. aureus; ATCC 700699 / MSSA): ≥ 4000 ng/mL; MIC (S. aureus; ATCC 700787 / MSSA): 1.95 ng/mL (≈ 0.00675 µM); MIC (S. aureus; ATCC 700788 / MSSA): 31.2 ng/mL (≈ 0.108 µM); MIC (S. aureus; ATCC 700789 / MSSA): 15.6 ng/mL (≈ 0.054 µM) |
| CCCCC(CS)C(=O)NC(CCCNC(=N)N)C(=O)Nc1ccc2ccccc2c1 (centres unmarked) [optimal inhibitor] |  |  |  |  |  |  |  | Ki (PDF): 15 nM |

The next lines start with results.

| half-life (Stability in PBS, pH 7.4) | half-life [1] | Stability PBS, pH 7.4 % left after 6 hrs (Stability in PBS, pH 7.4) | Stability Mueller Hinton Broth % left after 6 hrs [1] | Stability Mouse Plasma % left after 10 min [2] | half-life [2] | half-life [3] | Structure (SMILES) | other results |
| --- | --- | --- | --- | --- | --- | --- | --- | --- |
| 3.3 h | 2.9 h |  |  |  |  |  | CSCCC(NC=O)C(=O)NC(CC(C)C)C(=O)Oc1c(Br)cc(CO)cc1Br (centres unmarked) [NB3144, 2-(2-formylamino-4-methylsulfanyl-butyrylamino)-4-methyl-pentanoic Acid 2,6-dibromo-hydroxymethyl-phenyl Ester] |  |
| > 12 h | > 12 h | 99% | 99% | 94% | > 0.333 h | > 2 h | CSCCC(NC=O)C(=O)NC(CC(C)C)C(=O)Oc1c(-c2ccccc2)cc(CO)cc1-c1ccccc1 (centres unmarked) [NB3145, 2-(2-formylamino-4-methylsulfanyl-butyrylamino)-4-methyl-pentanoic Acid 5′-hydroxymethyl-[1,1′;3′,1″]terphenyl-2′-yl Ester] | Stability Human Plasma % left after 120 min [3]: 94% |
| > 12 h | > 12 h | 98% | 91% |  | 0.148 h | 0.177 h | COc1cc(CO)cc(Br)c1OC(=O)C(CC(C)C)NC(=O)C(CCSC)NC=O (centres unmarked) [NB3162, 2-(2-formylamino-4-methylsulfanyl-butyrylamino)-4-methyl-pentanoic Acid 2-bromo-4-hydroxymethyl-6-methoxy-phenyl Ester] |  |
| > 12 h | > 12 h | 85% | 95% | 94% | > 0.333 h | > 2 h | CSCCC(NC=O)C(=O)NC(CC(C)C)C(=O)Oc1c(C)cc(CO)cc1C (centres unmarked) [NB3165, 2-(2-formylamino-4-methylsulfanyl-butyrylamino)-4-methyl-pentanoic Acid 4-hydroxymethyl-2,6-dimethyl-phenyl Ester] | Stability Human Plasma % left after 120 min [3]: 94% |
| > 12 h | > 12 h | 95% | 89% | 88% | > 0.333 h | 0.533 h | CSCCC(NC=O)C(=O)NC(CC(C)C)C(=O)Oc1c(Br)cc(CO)cc1-c1ccco1 (centres unmarked) [NB3177, 2-(2-Formylamino-4-methylsulfanyl-butyrylamino)-4-methyl-pentanoic Acid 2-bromo-6furan-2-yl-4-hydroxymethyl-phenyl Ester] |  |
